Measured values as given in patent publication US20060069132A1, “Azolecarboxamide herbicides” (priority 2004, published 2006).

Legend:
lambsquarters = experiment: Test B pre-/postemergence herbicide test; assay type: in vivo, Chenopodium album; conditions: for Lambsquarters plant response rating: postemergence
In short: (§1)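 Formulation: non-phytotoxic solvent mix with surfactant. Timing: preemergence on seed and postemergence on 2–18 cm plants, applied concurrently. Readout after 13–15 d greenhouse: visual 0–100 control rating against controls.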

barnyardgrass [1] = experiment: Test C flooded paddy test; assay type: in vivo, Echinochloa crus-galli
In short: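 After a postemergence application at 1 to 4 leaves (plants 2–18 cm high), or at 2 leaves for barnyardgrass in flooded paddy, plants stayed in the greenhouse for 12 to 14 days. Damage was then judged visually relative to control plants, with 100 indicating complete control.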

rice [2] = experiment: Test B flooded paddy test; assay type: in vivo, Oryza sativa; conditions: 1000 g ai/ha, scale 0 to 100 (0 no effect, 100 complete control)
In short: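 Scale 0–100: zero equals no visible effect, 100 complete control, judged by eye relative to controls. Timing: 13 to 15 days in greenhouse post-treatment. Growth stage at spraying: two leaves (paddy) or one to four leaves, 2–18 cm (postemergence).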

giant foxtail = experiment: Test B pre-/postemergence herbicide test; assay type: in vivo, Setaria faberi; conditions: for Foxtail, Giant plant response rating: postemergence
In short: as §1

barnyardgrass [3] = experiment: Test B flooded paddy test; assay type: in vivo, Echinochloa crus-galli; conditions: 1000 g ai/ha, scale 0 to 100 (0 no effect, 100 complete control)
In short: (§2)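 Formulated test chemicals went onto postemergence plants measuring 2 to 18 cm, at one to four leaves. For the paddy assay, species had reached two leaves. Scoring took place 13–15 days later by eye, relative to untreated plants, using 0 for no effect up to 100 for full control.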

[4] = system: small flower umbrella sedge; experiment: Test B flooded paddy test; assay type: in vivo, Cyperus difformis; conditions: 1000 g ai/ha, scale 0 to 100 (0 no effect, 100 complete control)
In short: as §2

wheat = experiment: Test B postemergence herbicide test; assay type: in vivo, Triticum aestivum; design: key to Wheat plant response rating: 0 = no effect, 100 = complete control; conditions: postemergence
In short: (§3)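 Treated at 2-leaf (paddy) or 1–4-leaf, 2–18 cm (postemergence); greenhouse 13–15 d; visual score vs control, 0 none to 100 complete control; dash = not tested.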

large crabgrass = experiment: Test B pre-/postemergence herbicide test; assay type: in vivo, Digitaria sanguinalis; conditions: for Crabgrass, Large plant response rating: postemergence
In short: as §1

[5] = system: smallflower umbrella sedge; experiment: Test C flooded paddy test; assay type: in vivo, Cyperus difformis
velvetleaf = experiment: Test B pre-/postemergence herbicide test; assay type: in vivo, Abutilon theophrasti; conditions: for Velvetleaf plant response rating: postemergence
In short: as §1

rice [6] = experiment: Test B pre-/postemergence herbicide test; assay type: in vivo, Oryza sativa; conditions: 0 = no effect, 100 = complete control, preemergence
In short: as §1

morningglory = experiment: Test B pre-/postemergence herbicide test; assay type: in vivo, Ipomoea coccinea; conditions: for Morningglory plant response rating: postemergence
In short: (§4)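 Plants compared with untreated controls 13–15 days post-treatment and given a visual 0–100 injury score. Applications: preemergence to seeds; postemergence at 1- to 4-leaf (2–18 cm); paddy species flooded, 2-leaf stage. Vehicle non-phytotoxic, surfactant included.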

rice [7] = experiment: Test C flooded paddy test; assay type: in vivo, Oryza sativa
In short: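 Injury scored visually against controls on a 0 (no effect) to 100 (complete control) scale, 12 to 14 days after treatment in greenhouse. Flooded paddy plants treated at 2-leaf stage; postemergence plants at 1- to 4-leaf stage, 2 to 18 cm tall.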

blackgrass = experiment: Test B postemergence herbicide test; assay type: in vivo, Alopecurus myosuroides; conditions: postemergence, visual rating, scale 0 (no effect) to 100 (complete control)
In short: as §2

corn = experiment: Test B pre-/postemergence herbicide test; assay type: in vivo, Zea mays; conditions: for Corn plant response rating: postemergence
In short: as §1

ducksalad [8] = experiment: Test C flooded paddy test; assay type: in vivo, Heteranthera limosa
wild oat = experiment: Test B postemergence herbicide test; assay type: in vivo, Avena fatua; conditions: postemergence
In short: as §3

Surinam grass = experiment: Test B pre-/postemergence herbicide test; assay type: in vivo, Urochloa decumbens; conditions: for Surinam Grass plant response rating: postemergence
In short: as §1

barnyardgrass [9] = experiment: Test B pre-/postemergence herbicide test; assay type: in vivo, Echinochloa crus-galli; conditions: for Barnyardgrass plant response rating: postemergence, scale 0 (no effect) to 100 (complete control)
In short: as §4

pigweed = experiment: Test B pre-/postemergence herbicide test; assay type: in vivo, Amaranthus retroflexus; conditions: for Pigweed plant response rating: postemergence
In short: as §1

cocklebur = experiment: Test B pre-/postemergence herbicide test; assay type: in vivo, Xanthium strumarium; conditions: for Cocklebur plant response rating: postemergence, scale 0 (no effect) to 100 (complete control)
In short: as §4

ducksalad [10] = experiment: Test B flooded paddy test; assay type: in vivo, Heteranthera limosa; conditions: 1000 g ai/ha, scale 0 to 100 (0 no effect, 100 complete control)
In short: as §2

[11] = 500 g ai/ha, visual rating, 0 = no effect, 100 = complete control, preemergence
[12] = 125 g ai/ha, visual rating, scale 0 (no effect) to 100 (complete control)
[13] = 500 g ai/ha, scale 0 to 100, 0 is no effect, 100 is complete control
[14] = 125 g ai/ha, scale 0 to 100 (0 no effect, 100 complete control)
[15] = 250 g ai/ha, scale of 0 to 100, 0 is no effect, 100 is complete control
[16] = 500 g ai/ha, visual rating after 12 to 14 days, scale 0 to 100 (0 no effect, 100 complete control)
[17] = 125 g ai/ha, 0 = no effect, 100 = complete control, preemergence

SMILES: CCn1nc(C(C)(C)C)cc1C(=O)Nc1cncc(C(=O)N2CC=CC2)c1 [Compound 260]
- Plant response rating, Lambsquarters (lambsquarters; [11]): 100
- Lambsquarters plant response rating (lambsquarters; [12]): 10
- Lambsquarters plant response rating (lambsquarters; [13]): 30
- Barnyardgrass plant response rating (barnyardgrass [1]; 62 g ai/ha, scale 0 to 100 (0 no effect, 100 complete control)): 0
- Barnyardgrass plant response rating (barnyardgrass [1]; [14]): 0
- Barnyardgrass plant response rating (barnyardgrass [1]; [15]): 20
- Plant response rating, Barnyardgrass (barnyardgrass [1]; [16]): 35
- Rice plant response rating (rice [2]): 70
- Foxtail, Giant plant response rating (0 to 100 scale) (giant foxtail; [17]): 0
- Plant response rating, Foxtail, Giant (giant foxtail; [11]): 30
- Foxtail, Giant plant response rating (giant foxtail; [12]): 0
- Foxtail, Giant plant response rating (giant foxtail; [13]): 0
- Barnyardgrass plant response rating (barnyardgrass [3]): 60
- Sedge, Umbrella plant response rating [4]: 70
- Wheat plant response rating (wheat; [12]): 20
- Wheat plant response rating (wheat; [13]): 40
- Crabgrass, Large plant response rating (0 to 100 scale) (large crabgrass; [17]): 0
- Crabgrass, Large plant response rating (large crabgrass; [12]): 0
- Crabgrass, Large plant response rating (large crabgrass; [13]): 10
- Sedge, Umbrella plant response rating ([5]; 62 g ai/ha, scale 0 to 100): 0
- Sedge, Umbrella plant response rating [5, 14]: 40
- Sedge, Umbrella plant response rating [5, 15]: 65
- Plant response rating, Sedge, Umbrella [5, 16]: 65
- Velvetleaf plant response rating (0 to 100 scale) (velvetleaf; [17]): 0
- Plant response rating, Velvetleaf (velvetleaf; [11]): 10
- Velvetleaf plant response rating (velvetleaf; [12]): 0
- Velvetleaf plant response rating (velvetleaf; [13]): 20
- Rice plant response rating (0 to 100 scale) (rice [6]; 125 g ai/ha): 0
- Plant response rating, Rice (rice [6]; 500 g ai/ha, visual rating): 30
- Morningglory plant response rating (0 to 100 scale) (morningglory; [17]): 0
- Plant response rating, Morningglory (morningglory; [11]): 0
- Morningglory plant response rating (morningglory; [12]): 0
- Morningglory plant response rating (morningglory; [13]): 10
- Rice plant response rating (rice [7]; 62 g ai/ha, scale 0 to 100): 0
- Rice plant response rating (rice [7]; [14]): 0
- Rice plant response rating (rice [7]; [15]): 0
- Plant response rating, Rice (rice [7]; [16]): 15
- Blackgrass plant response rating (blackgrass; 125 g ai/ha): 10
- Blackgrass plant response rating (blackgrass; 500 g ai/ha): 10
- Corn plant response rating (0 to 100 scale) (corn; [17]): 0
- Plant response rating, Corn (corn; [11]): 0
- Corn plant response rating (corn; [12]): 0
- Corn plant response rating (corn; [13]): 0
- Ducksalad plant response rating (ducksalad [8]; 62 g ai/ha, scale 0 to 100): 0
- Ducksalad plant response rating (ducksalad [8]; [14]): 70
- Ducksalad plant response rating (ducksalad [8]; [15]): 75
- Plant response rating, Ducksalad (ducksalad [8]; [16]): 85
- Oat, Wild plant response rating (wild oat; [12]): 20
- Oat, Wild plant response rating (wild oat; [13]): 30
- Surinam Grass plant response rating (0 to 100 scale) (Surinam grass; [17]): 0
- Plant response rating, Surinam Grass (Surinam grass; [11]): 10
- Surinam Grass plant response rating (Surinam grass; [12]): 0
- Surinam Grass plant response rating (Surinam grass; [13]): 20
- Barnyardgrass plant response rating (0 to 100 scale) (barnyardgrass [9]; [17]): 0
- Plant response rating, Barnyardgrass (barnyardgrass [9]; [11]): 70
- Barnyardgrass plant response rating (barnyardgrass [9]; 125 g ai/ha, visual rating): 0
- Barnyardgrass plant response rating (barnyardgrass [9]; 500 g ai/ha, visual rating): 0
- Plant response rating, Pigweed (pigweed; [11]): 100
- Pigweed plant response rating (pigweed; [12]): 20
- Pigweed plant response rating (pigweed; [13]): 70
- Cocklebur plant response rating (0 to 100 scale) (cocklebur; [17]): 0
- Plant response rating, Cocklebur (cocklebur; [11]): 0
- Cocklebur plant response rating (cocklebur; 125 g ai/ha, visual rating): 10
- Cocklebur plant response rating (cocklebur; 500 g ai/ha, visual rating): 20
- Ducksalad plant response rating (ducksalad [10]): 90
